Measured values reported in patent publication US20200061026A1, “METHODS AND COMPOSITIONS FOR PREVENTING VECTOR-BORNE DISEASE TRANSMISSION” (The Scripps Research Institute, priority 2016, published 2020).

Assays:
[1] = test system: Anopheles gambiae (Tiassalé); test: Membrane feeding, Anopheles gambiae Tiassalé strain (rdl mutation); assay type: in vivo; conditions: Tiassale strain; membrane feeding
Method: (§1) Mosquito colonies utilized in the examples were generally maintained as described: The colony of Anopheles stephensi (Sind-Kasur Nijmegen strain) was maintained at the Radboud University Medical Center, Nijmegen, The Netherlands, by 30° C. and 70-80% humidity and on a 12/12 hour day/night cycle. The Anopheles gambiae strains Kisumu and Tiassalé and the Aedes aegypti strains New Orleans and Cayman were reared at the Liverpool Insect Testing Establishment, Liverpool, UK. Kisumu is an insecticide susceptible lab strain. New Orleans was originally colonized by the Centers for Disease Control and Prevention. The Tiassalé strain was colonized from Southern Cote D'Ivoire where resistance to all classes of insecticide is found and the Cayman strain was colonized from Grand Cayman, where Aedes aegypti are highly resistant to DDT and pyrethroid insecticides. Both resistant strains are routinely selected with insecticides to ensure the maintenance of resistance, 0.75% permethrin for Cayman and 0.05% deltamethrin for Tiassalé, and profiled for resistance to a range of insecticides, including 4% dieldrin, to which Tiassalé is resistant but Cayman is susceptible.
Isoxazoline compounds fluralaner or afoxolaner were reconstituted in 50% human serum and 50% red blood cells and administered to adult Anopheles stephensi mosquitos via standard membrane feeding. Lethality was assessed 1, 2 or 8 days after exposure. FIG. 2A represents a plot of viable Anopheles stephensi versus fluralaner concentration at each day of assessment. FIG. 2B represents a plot of viable Anopheles stephensi versus afoxolaner concentration at each day of assessment. […] The IC50 values of each compound for Anopheles death were determined by logistic regression using a least squares method to find the best fit and are shown in Table 1. IC50 values were calculated by applying a four-parameter logistic regression model using a least-squares method to find the best fit using the Graphpad Prism 5.0 software package.
The membrane feeding experiment described was repeated using the insecticide dieldrin on two strains of Anopheles gambiae: Kisumu and Tiassale. The Tiassale strain has a mutation in the resistance to dieldrin (rdl) locus, which codes for γ-aminobutyric acid (GABA) receptor. The Tiassale strain was resistant to pyrethroids, carbamate, DDT and dieldrin (knockdown resistance (kdr), Ace and rdl mutations). The Kisumu strain was susceptible to killing by all tested insecticides. FIG. 3A represents a plot of percentage survival of Kisumu and Tiassale strains of Anopheles gambiae versus dieldrin concentration. FIG. 3B represents a plot of survival of the Kisumu and Tiassale strains at 10 μM dieldrin. […] Both figures indicate that the dose-response in systemic feed experiment performed here in allows for identification of a resistance profile.
The feed experiment in Anopheles gambiae was repeated using the isoxazoline compounds fluralaner and afoxolaner to determine if the rdl mutation confers resistance to the isoxazoline insecticides. Isoxazoline insecticides target Rdl, but in a location thought to be different from dieldrin. The mosquitos were fed fluralaner or afoxolaner at various concentrations and lethality was assessed after 24 hours. FIG. 4A represents a plot of percentage survival of Kisumu and Tiassale strains of Anopheles gambiae versus fluralaner concentration. FIG. 4B represents a plot of percentage survival of Kisumu and Tiassale strains of Anopheles gambiae versus afoxolaner concentration.

[2] = test system: Anopheles gambiae Kisumu; test: WHO paper contact assay, Anopheles gambiae Kisumu; assay type: in vivo; conditions: papers 0.75% permethrin, 0.05% deltamethrin, 4% DDT, 0.1% bendiocarb, 1.0% fenitrothion, 4% dieldrin
Method: as §1
(§2) Without being bound by theory, isoxazolines occupy a binding site that is distinct from the targets of known modulators of ionotropic GABA receptors. In line with this notion, fluralaner and afoxolaner were fully active against the Anopheles gambiae Tiassalé strain that carries the resistance-to-dieldrin (rdl) mutation in the GABA receptor. In addition, they were equipotent against pyrethroid- and carbamate-resistant strains carrying mutations in the kdr sodium channel and acetylcholine esterase (Ace-1) genes respectively. […] The results are shown as percentage of survival (on over 100 mosquitoes for each case), the bold and underlined numbers indicate values that fall within the criteria for resistance.

[3] = test system: Anopheles gambiae Tiassale 13; test: WHO paper contact assay, Anopheles gambiae Tiassale; assay type: in vivo; conditions: papers 0.75% permethrin, 0.05% deltamethrin, 4% DDT, 0.1% bendiocarb, 1.0% fenitrothion, 4% dieldrin
Method: as §1, §2

[4] = test system: Aedes aegypti New Orleans; test: WHO paper contact assay, Aedes aegypti New Orleans; assay type: in vivo; conditions: papers 0.75% permethrin, 0.05% deltamethrin, 4% DDT, 0.1% bendiocarb, 1.0% fenitrothion, 4% dieldrin
Method: as §1, §2

[5] = test system: Aedes aegypti Cayman; test: WHO paper contact assay, Aedes aegypti Cayman; assay type: in vivo; conditions: papers 0.75% permethrin, 0.05% deltamethrin, 4% DDT, 0.1% bendiocarb, 1.0% fenitrothion, 4% dieldrin
Method: as §1, §2

[6] = test system: malaria transmission; conditions: cited from earlier work
[7] = Further in vitro degradation assay, human primary hepatocytes; conditions: human, hepatocytes
Method: (§3) In a further assay, isoxazolines (fluralaner and afoxolaner) and control compounds (7-Ethoxycoumarin and 7-Hydroxycoumarin [Sigma]) were dissolved in DMSO at 10 and 30 mM respectively, then diluted first 20-fold with 45% methanol in water and a further 10-fold in pre-warmed Williams' Medium E. Cryopreserved human, dog and rat hepatocytes (In Vitro Technologies) were thawed, isolated by percoll gradient and suspended in Williams' Medium E. Cells were then dispensed into the wells of 96-well plates containing 10 μL of diluted compounds, to reach a final concentration of 0.5×10^6 cells/mL and 1 μM of isoxazolines or 3 μM of control. After an incubation at 37° C. of 0, 15, 30, 60 or 90 minutes, the reaction was stopped with acetonitrile. The samples were then shaken for 10 minutes at 500 rpm and centrifuged at 3220 g for 20 minutes. Supernatants were transferred and stored at 4° C. until LC-MS-MS analysis.

[8] = Further in vitro degradation assay, dog primary hepatocytes; conditions: hepatocytes
Method: as §3

[9] = Further in vitro degradation assay, rat primary hepatocytes; conditions: hepatocytes
Method: as §3

| Compound | percentage of survival [2] [%] | percentage of survival [3] [%] | percentage of survival [4] [%] | percentage of survival [5] [%] | further results |
| --- | --- | --- | --- | --- | --- |
| ClC1=C(Cl)[C@]2(Cl)[C@@H]3[C@@H]4C[C@@H]([C@H]5O[C@@H]45)[C@@H]3[C@@]1(Cl)C2(Cl)Cl [Dieldrin] | 96 | 21 | 100 | 95 | resistance of strain to killing (in words) [1]: confers resistance to killing by dieldrin |
| ivermectin | – | – | – | – | estimated reduction in new malaria cases in children under 5 ([6]; MDA studies): 16%; reduction in infectious Anopheles gambiae ([6]; MDA studies): ~80%; estimated reduction in transmission potential ([6]; co-treatment with artemether-lumefantrine, effect short-lived): 35% |
| O=c1ccc2ccc(O)cc2o1 [7-Hydroxycoumarin] | – | – | – | – | half-life [7]: 14.7 min; hepatocyte CLint [7]: 94.1 µL/min/1e6 cells; half-life [8]: 20.4 min; hepatocyte CLint [8]: 68.1 µL/min/1e6 cells; half-life [9]: 4.8 min; hepatocyte CLint [9]: 290 µL/min/1e6 cells |
| CCOc1ccc2ccc(=O)oc2c1 [7-Ethoxycoumarin] | – | – | – | – | half-life [7]: 20.1 min; hepatocyte CLint [7]: 69.1 µL/min/1e6 cells; half-life ([8]; dog): 14 min; hepatocyte CLint ([8]; dog): 99.3 µL/min/1e6 cells; half-life ([9]; rat): 61.8 min; hepatocyte CLint ([9]; rat): 22.4 µL/min/1e6 cells |
| Clc1ccc(C(c2ccc(Cl)cc2)C(Cl)(Cl)Cl)cc1 [DDT] | 100 | 3 | 100 | 0 | – |
| COP(=S)(OC)Oc1ccc([N+](=O)[O-])c(C)c1 [Fenitrothion] | 100 | 96 | 100 | 100 | – |
| CC1(C)[C@H](C(=O)O[C@H](C#N)c2cccc(Oc3ccccc3)c2)[C@@H]1C=C(Br)Br [Deltamethrin] | 100 | 10 | 100 | 36 | – |
| CNC(=O)Oc1cccc2c1OC(C)(C)O2 [Bendiocarb] | 100 | 11 | 27 | 20 | – |
| CC1(C)C(C=C(Cl)Cl)C1C(=O)OCc1cccc(Oc2ccccc2)c1 (stereo not shown) [Permethrin] | 100 | 3 | 100 | 7 | – |
